Measurements reported in patent publication US20230416227A1, “PLASMA KALLIKREIN INHIBITORS” (Merck Sharp & Dohme LLC, priority 2020, published 2023).

Target: T1, Human plasma kallikrein (Homo sapiens, UniProt P03952)
T1 construct: yields a heavy chain (371 amino acids) and a light chain (248 amino acids); purchased Enzyme Research Laboratories
Assay: Plasma Kallikrein Assay
Type: biochemical
Settings: purified Human plasma kallikrein 0.5 nM, substrate Acetyl-K-P-R-AFC, pH 7.4

T1 sequence (P03952 391-638 limits assumed): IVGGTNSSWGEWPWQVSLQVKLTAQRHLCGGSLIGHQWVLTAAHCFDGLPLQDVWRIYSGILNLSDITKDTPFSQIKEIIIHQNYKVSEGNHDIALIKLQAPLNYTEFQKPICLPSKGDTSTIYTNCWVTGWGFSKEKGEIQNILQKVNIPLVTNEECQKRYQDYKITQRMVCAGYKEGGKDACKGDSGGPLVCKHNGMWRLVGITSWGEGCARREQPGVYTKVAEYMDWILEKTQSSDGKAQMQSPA
T1 sequence (P03952 20-390 partner limits assumed): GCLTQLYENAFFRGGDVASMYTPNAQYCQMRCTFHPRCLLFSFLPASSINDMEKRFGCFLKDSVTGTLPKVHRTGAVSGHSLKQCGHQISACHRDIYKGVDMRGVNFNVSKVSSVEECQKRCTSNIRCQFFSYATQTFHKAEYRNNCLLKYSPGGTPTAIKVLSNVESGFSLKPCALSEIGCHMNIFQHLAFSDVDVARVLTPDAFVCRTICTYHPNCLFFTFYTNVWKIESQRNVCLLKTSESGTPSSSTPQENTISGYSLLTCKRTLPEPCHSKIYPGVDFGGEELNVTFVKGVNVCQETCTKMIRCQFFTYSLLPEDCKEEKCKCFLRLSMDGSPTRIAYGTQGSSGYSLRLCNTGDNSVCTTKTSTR

| IC50 | SMILES |
| --- | --- |
| 12.5 nM | O=C(Nc1cnn(Cc2ccc(N3CCCC3CO)nc2)c1)c1cncc(-c2c(C(F)F)ccc(Cl)c2F)n1 (centres unmarked) [Example 118, 6-(3-Chloro-6-(difluoromethyl)-2-fluorophenyl)-N-(1-((6-(2-(hydroxymethyl)pyrrolidin-1-yl)pyridin-3-yl)methyl)-1H-pyrazol-4-yl)pyrazine-2-carboxamide] |
| 1.1 nM | CC(c1cnc(N2CC[C@H]2CN2CC[C@H](O)[C@@H](C)C2)nc1)n1cc(NC(=O)c2cncc(-c3c(C(F)F)ccc(Cl)c3F)n2)cn1 (stereo partly drawn) [Example 180, 6-(3-Chloro-6-(difluoromethyl)-2-fluorophenyl)-N-(1-(1-(2-((S)-2-(((3S,4S)-4-hydroxy-3-methylpiperidin-1-yl)methyl)azetidin-1-yl)pyrimidin-5-yl)ethyl)-1H-pyrazol-4-yl)pyrazine-2-carboxamide] |
| 3.5 nM | CC(c1cnc(N2CC[C@H]2[C@@H](C)N2CC(C)(O)C2)nc1)n1cc(NC(=O)c2cncc(-c3c(C(F)F)ccc(Cl)c3F)n2)cn1 (stereo partly drawn) [Example 190, 6-(3-Chloro-6-(difluoromethyl)-2-fluorophenyl)-N-(1-(1-(2-((S)-2-((R)-1-(3-hydroxy-3-methylazetidin-1-yl)ethyl)azetidin-1-yl)pyrimidin-5-yl)ethyl)-1H-pyrazol-4-yl)pyrazine-2-carboxamide] |
| 32.9 nM | CC(c1cnc(N2CCC[C@@H]2C(N)=O)nc1)n1cc(NC(=O)c2cncc(-c3c(C(F)F)ccc(Cl)c3F)n2)cn1 (mixture of isomers) [Example 104, N-(1-((R and S)-1-(2-((R)-2-Carbamoylpyrrolidin-1-yl)pyrimidin-5-yl)ethyl)-1H-pyrazol-4-yl)-6-(3-chloro-6-(difluoromethyl)-2-fluorophenyl)pyrazine-2-carboxamide] |
| 33.2 nM | O=C(Nc1cnn(C2CCc3nc(N4CCC4)ccc32)c1)c1cncc(-c2c(C(F)F)ccc(Cl)c2F)n1 (single isomer, unassigned) [Example 35, (S or R)-N-(1-(2-(azetidin-1-yl)-6,7-dihydro-5H-cyclopenta[b]pyridin-5-yl)-1H-pyrazol-4-yl)-6-(3-chloro-6-(difluoromethyl)-2-fluorophenyl)pyrazine-2-carboxamide] |
| 4.2 nM | CC(c1cnc(N2CC[C@H]2CN(C)[C@H]2CCC[C@@H]2O)nc1)n1cc(NC(=O)c2cncc(-c3c(C(F)F)ccc(Cl)c3F)n2)cn1 (stereo partly drawn) [Example 183, 6-(3-Chloro-6-(difluoromethyl)-2-fluorophenyl)-N-(1-(1-(2-((S)-2-((((1S,2S)-2-hydroxycyclopentyl)(methyl)amino)methyl)azetidin-1-yl)pyrimidin-5-yl)ethyl)-1H-pyrazol-4-yl)pyrazine-2-carboxamide] |
| 17.9 nM | CCC(=O)C1C2CC2CN1c1ncc(Cn2cc(NC(=O)c3cncc(-c4c(C(F)F)ccc(Cl)c4F)n3)cn2)cn1 (centres unmarked) [Example 91, 6-(3-Chloro-6-(difluoromethyl)-2-fluorophenyl)-N-(1-((2-(2-propionyl-3-azabicyclo[3.1.0]hexan-3-yl)pyrimidin-5-yl)methyl)-1H-pyrazol-4-yl)pyrazine-2-carboxamide] |
| 6.2 nM | CC(c1cnc(N2C[C@H]3C[C@H]3C2C(=O)N(C)C)nc1)n1cc(NC(=O)c2cncc(-c3c(C(F)F)ccc(Cl)c3F)n2)cn1 (single isomer, unassigned) [Example 201, (1R,2S,5S or 1S,2R,5R)-3-(5-((S or R)-1-(4-(6-(3-Chloro-6-(difluoromethyl)-2-fluorophenyl)pyrazine-2-carboxamido)-1H-pyrazol-1-yl)ethyl)pyrimidin-2-yl)-N,N-dimethyl-3-azabicyclo[3.1.0]hexane-2-carboxamide] |
| 26.3 nM | O=C(Nc1cnn(Cc2ccc(N3CC[C@@H]3CO)nc2)c1)c1cncc(-c2c(C(F)F)ccc(Cl)c2F)n1 [Example 68, (R)-6-(3-Chloro-6-(difluoromethyl)-2-fluorophenyl)-N-(1-((6-(2-(hydroxymethyl)azetidin-1-yl)pyridin-3-yl)methyl)-1H-pyrazol-4-yl)pyrazine-2-carboxamide] |
| 3.4 nM | CC(c1cnc(N2CC[C@H]2CN2C[C@H](O)C[C@H]2C)nc1)n1cc(NC(=O)c2cncc(-c3c(C(F)F)ccc(Cl)c3F)n2)cn1 (stereo partly drawn) [Example 164, 6-(3-Chloro-6-(difluoromethyl)-2-fluorophenyl)-N-(1-(1-(2-((S)-2-(((2R,4R)-4-hydroxy-2-methylpyrrolidin-1-yl)methyl)azetidin-1-yl)pyrimidin-5-yl)ethyl)-1H-pyrazol-4-yl)pyrazine-2-carboxamide] |
| 1.1 nM | O=C(Nc1cnn(Cc2cnc(N3CCCC3CN3CCOCC3)nc2)c1)c1cncc(-c2c(C(F)F)ccc(Cl)c2F)n1 (centres unmarked) [Example 153, 6-(3-Chloro-6-(difluoromethyl)-2-fluorophenyl)-N-(1-((2-(2-(morpholinomethyl)pyrrolidin-1-yl)pyrimidin-5-yl)methyl)-1H-pyrazol-4-yl)pyrazine-2-carboxamide] |
| 1.8 nM | CC(c1cnc(N2CC[C@H]2CN2CC(O)(C3CC3)C2)nc1)n1cc(NC(=O)c2cncc(-c3c(C(F)F)ccc(Cl)c3F)n2)cn1 (stereo partly drawn) [Example 172, 6-(3-Chloro-6-(difluoromethyl)-2-fluorophenyl)-N-(1-(1-(2-((S)-2-((3-cyclopropyl-3-hydroxyazetidin-1-yl)methyl)azetidin-1-yl)pyrimidin-5-yl)ethyl)-1H-pyrazol-4-yl)pyrazine-2-carboxamide] |
| 3.5 nM | O=C(Nc1cnn(Cc2ccc(N3CCCC3CCO)nc2)c1)c1cncc(-c2c(C(F)F)ccc(Cl)c2F)n1 (centres unmarked) [Example 115, 6-(3-Chloro-6-(difluoromethyl)-2-fluorophenyl)-N-(1-((6-(2-(2-hydroxyethyl)pyrrolidin-1-yl)pyridin-3-yl)methyl)-1H-pyrazol-4-yl)pyrazine-2-carboxamide] |
| 730 nM | CC1C2CC2CN1c1ncc(C(CO)n2cc(NC(=O)c3cncc(-c4c(C(F)F)ccc(Cl)c4F)n3)cn2)cn1 (single isomer, unassigned) [Example 48, 6-(3-Chloro-6-(difluoromethyl)-2-fluorophenyl)-N-(1-((S or R)-2-hydroxy-1-(2-((1S,2R,5R or 1R, 2S, 5S)-2-methyl-3-azabicyclo[3.1.0]hexan-3-yl)pyrimidin-5-yl)ethyl)-1H-pyrazol-4-yl)pyrazine-2-carboxamide] |
| 42.9 nM | CC(N)C1CCCN1c1ncc(Cn2cc(NC(=O)c3cncc(-c4c(C(F)F)ccc(Cl)c4F)n3)cn2)cn1 (single isomer, unassigned) [Example 160, N-(1-((2-(2-(1-Aminoethyl)pyrrolidin-1-yl)pyrimidin-5-yl)methyl)-1H-pyrazol-4-yl)-6-(3-chloro-6-(difluoromethyl)-2-fluorophenyl)pyrazine-2-carboxamide] |
| 49.5 nM | CC(=O)N1CC[C@@H]2CN(c3ccc(Cn4cc(NC(=O)c5cncc(-c6c(C(F)F)ccc(Cl)c6F)n5)cn4)cn3)[C@@H]2C1 [Example 133, N-(1-((6-((1S,6R)-3-Acetyl-3,8-diazabicyclo[4.2.0]octan-8-yl)pyridin-3-yl)methyl)-1H-pyrazol-4-yl)-6-(3-chloro-6-(difluoromethyl)-2-fluorophenyl)pyrazine-2-carboxamide] |
| 2.7 nM | CN(CCN1CCCC1)c1ccc(Cn2cc(NC(=O)c3cncc(-c4c(C(F)F)ccc(Cl)c4F)n3)cn2)cn1 [Example 114, 6-(3-Chloro-6-(difluoromethyl)-2-fluorophenyl)-N-(1-((6-(methyl(2-(pyrrolidin-1-yl)ethyl)amino)pyridin-3-yl)methyl)-1H-pyrazol-4-yl)pyrazine-2-carboxamide] |
| 17.5 nM | O=C(Nc1cnn(Cc2ccc(N3CC4CCC(C3)N4)nc2)c1)c1cncc(-c2c(C(F)F)ccc(Cl)c2F)n1 [Example 204, N-(1-((6-(3,8-Diazabicyclo[3.2.1]octan-3-yl)pyridin-3-yl)methyl)-1H-pyrazol-4-yl)-6-(3-chloro-6-(difluoromethyl)-2-fluorophenvl)pyrazine-2-carboxamide] |
| 1120 nM | CC1C2CC2CN1c1ncc(C(CO)n2cc(NC(=O)c3cncc(-c4c(C(F)F)ccc(Cl)c4F)n3)cn2)cn1 (single isomer, unassigned) [Example 50, 6-(3-Chloro-6-(difluoromethyl)-2-fluorophenyl)-N-(1-((S or R)-2-hydroxy-1-(2-((1R,2S,5S or 1S,2R, 5R)-2-methyl-3-azabicyclo[3.1.0]hexan-3-yl)pyrimidin-5-yl)ethyl)-1H-pyrazol-4-yl)pyrazine-2-carboxamide] |
| 49 nM | O=C(Nc1cnn(Cc2ccc(N3CCC(CO)C3)nc2)c1)c1cncc(-c2c(C(F)F)ccc(Cl)c2F)n1 (centres unmarked) [Example 132, 6-(3-Chloro-6-(difluoromethyl)-2-fluorophenyl)-N-(1-((6-(3-(hydroxymethyl)pyrrolidin-1-yl)pyridin-3-yl)methyl)-1H-pyrazol-4-yl)pyrazine-2-carboxamide] |
| 65.1 nM | O=C(Nc1cnn(Cc2cnc(N3CCCC3CO)nc2)c1)c1cncc(-c2c(C(F)F)ccc(Cl)c2F)n1 (centres unmarked) [Example 113, 6-(3-Chloro-6-(difluoromethyl)-2-fluorophenyl)-N-(1-((2-(2-(hydroxymethyl)pyrrolidin-1-yl)pyrimidin-5-yl)methyl)-1H-pyrazol-4-yl)pyrazine-2-carboxamide] |
| 14.9 nM | CN(C)CCN(CCO)c1ncc(Cn2cc(NC(=O)c3cncc(-c4c(C(F)F)ccc(Cl)c4F)n3)cn2)cn1 [Example 88, 6-(3-Chloro-6-(difluoromethyl)-2-fluorophenyl)-N-(1-((2-((2-(dimethylamino)ethyl)(2-hydroxyethyl)amino)pyrimidin-5-yl)methyl)-1H-pyrazol-4-yl)pyrazine-2-carboxamide] |
| 1.5 nM | CC(c1cnc(N2CC[C@H]2[C@@H](C)N2CC[C@H](O)[C@@H]2C)nc1)n1cc(NC(=O)c2cncc(-c3c(C(F)F)ccc(Cl)c3F)n2)cn1 (stereo partly drawn) [Example 185, 6-(3-Chloro-6-(difluoromethyl)-2-fluorophenyl)-N-(1-(1-(2-((S)-2-((R)-1-((2S,3S)-3-hydroxy-2-methylpyrrolidin-1-yl)ethyl)azetidin-1-yl)pyrimidin-5-yl)ethyl)-1H-pyrazol-4-yl)pyrazine-2-carboxamide] |
